The NIST ThermoML archive (doi:10.1016/j.jct.2017.10.012)

Settings: Liquid, Vibrating tube method

CCCC[n+]1cccc(C)c1.O=S(=O)([N-]S(=O)(=O)C(F)(F)F)C(F)(F)F
Settings | mass density [kg/m3]
278.15 K, 100 kPa | 1431.5
278.15 K, 101.33 kPa | 1430.9
278.15 K, 1000 kPa | 1432.1
278.15 K, 10000 kPa | 1438.3
278.15 K, 20000 kPa | 1444.9
278.15 K, 40000 kPa | 1457.2
278.15 K, 60000 kPa | 1468.5
278.15 K, 80000 kPa | 1479.1
278.15 K, 100000 kPa | 1488.9
278.15 K, 120000 kPa | 1498.1
279.15 K, 101.33 kPa | 1429.9
280.15 K, 101.33 kPa | 1428.9
281.15 K, 101.33 kPa | 1427.9
282.15 K, 101.33 kPa | 1427
283.15 K, 101.33 kPa | 1426
284.15 K, 101.33 kPa | 1425
285.15 K, 101.33 kPa | 1424
286.15 K, 101.33 kPa | 1423.1
287.15 K, 101.33 kPa | 1422.1
288.15 K, 101.33 kPa | 1421.2
289.15 K, 101.33 kPa | 1420.2
290.15 K, 101.33 kPa | 1419.3
291.15 K, 101.33 kPa | 1418.3
292.15 K, 101.33 kPa | 1417.4
293.15 K, 101.33 kPa | 1416.5
294.15 K, 101.33 kPa | 1415.6
295.15 K, 101.33 kPa | 1414.6
296.15 K, 101.33 kPa | 1413.7
297.15 K, 101.33 kPa | 1412.8
298.15 K, 100 kPa | 1413.3
298.15 K, 101.33 kPa | 1411.9
298.15 K, 1000 kPa | 1414
298.15 K, 10000 kPa | 1420.4
298.15 K, 20000 kPa | 1427.3
298.15 K, 40000 kPa | 1440.1
298.15 K, 60000 kPa | 1452
298.15 K, 80000 kPa | 1463
298.15 K, 100000 kPa | 1473.5
298.15 K, 120000 kPa | 1483.1
299.15 K, 101.33 kPa | 1410.9
300.15 K, 101.33 kPa | 1410
301.15 K, 101.33 kPa | 1409.1
302.15 K, 101.33 kPa | 1408.2
303.15 K, 101.33 kPa | 1407.3
304.15 K, 101.33 kPa | 1406.4
305.15 K, 101.33 kPa | 1405.4
306.15 K, 101.33 kPa | 1404.5
307.15 K, 101.33 kPa | 1403.6
308.15 K, 101.33 kPa | 1402.7
309.15 K, 101.33 kPa | 1401.8
310.15 K, 101.33 kPa | 1400.9
311.15 K, 101.33 kPa | 1399.9
312.15 K, 101.33 kPa | 1399
313.15 K, 100 kPa | 1399.8
313.15 K, 101.33 kPa | 1398.1
313.15 K, 1000 kPa | 1400.5
313.15 K, 10000 kPa | 1407.3
313.15 K, 20000 kPa | 1414.5
313.15 K, 40000 kPa | 1428
313.15 K, 60000 kPa | 1440.3
313.15 K, 80000 kPa | 1451.7
313.15 K, 100000 kPa | 1462.4
313.15 K, 120000 kPa | 1472.1
314.15 K, 101.33 kPa | 1397.2
315.15 K, 101.33 kPa | 1396.3
316.15 K, 101.33 kPa | 1395.4
317.15 K, 101.33 kPa | 1394.5
318.15 K, 101.33 kPa | 1393.6
319.15 K, 101.33 kPa | 1392.7
320.15 K, 101.33 kPa | 1391.8
321.15 K, 101.33 kPa | 1390.9
322.15 K, 101.33 kPa | 1390
323.15 K, 101.33 kPa | 1389.2
324.15 K, 101.33 kPa | 1388.2
325.15 K, 101.33 kPa | 1387.4
326.15 K, 101.33 kPa | 1386.5
327.15 K, 101.33 kPa | 1385.6
328.15 K, 101.33 kPa | 1384.7
329.15 K, 101.33 kPa | 1383.8
330.15 K, 101.33 kPa | 1382.9
331.15 K, 101.33 kPa | 1382.1
332.15 K, 101.33 kPa | 1381.3
333.15 K, 100 kPa | 1381.5
333.15 K, 101.33 kPa | 1380.4
333.15 K, 1000 kPa | 1382.2
333.15 K, 10000 kPa | 1389.6
333.15 K, 20000 kPa | 1397.2
333.15 K, 40000 kPa | 1411.4
333.15 K, 60000 kPa | 1424.4
333.15 K, 80000 kPa | 1436.3
333.15 K, 100000 kPa | 1447.5
333.15 K, 120000 kPa | 1457.6
334.15 K, 101.33 kPa | 1379.4
335.15 K, 101.33 kPa | 1378.5
336.15 K, 101.33 kPa | 1377.6
337.15 K, 101.33 kPa | 1376.7
338.15 K, 101.33 kPa | 1375.8
339.15 K, 101.33 kPa | 1374.9
340.15 K, 101.33 kPa | 1374.1
341.15 K, 101.33 kPa | 1373.3
342.15 K, 101.33 kPa | 1372.4
343.15 K, 101.33 kPa | 1371.4
344.15 K, 101.33 kPa | 1370.5
345.15 K, 101.33 kPa | 1369.7
346.15 K, 101.33 kPa | 1368.7
347.15 K, 101.33 kPa | 1367.8
348.15 K, 100 kPa | 1367.9
348.15 K, 101.33 kPa | 1366.9
348.15 K, 1000 kPa | 1368.7
348.15 K, 10000 kPa | 1376.4
348.15 K, 20000 kPa | 1384.4
348.15 K, 40000 kPa | 1399.2
348.15 K, 60000 kPa | 1412.7
348.15 K, 80000 kPa | 1425
348.15 K, 100000 kPa | 1436.5
348.15 K, 120000 kPa | 1446.9
349.15 K, 101.33 kPa | 1366
350.15 K, 101.33 kPa | 1364.9
351.15 K, 101.33 kPa | 1364
352.15 K, 101.33 kPa | 1363
353.15 K, 101.33 kPa | 1362.2
354.15 K, 101.33 kPa | 1361.2
355.15 K, 101.33 kPa | 1360.4
356.15 K, 101.33 kPa | 1359.4
357.15 K, 101.33 kPa | 1358.6
358.15 K, 101.33 kPa | 1357.7
359.15 K, 101.33 kPa | 1356.8
360.15 K, 101.33 kPa | 1356
361.15 K, 101.33 kPa | 1355.1
362.15 K, 101.33 kPa | 1354.3
363.15 K, 101.33 kPa | 1353.4
364.15 K, 101.33 kPa | 1352.6
365.15 K, 101.33 kPa | 1351.7
366.15 K, 101.33 kPa | 1350.9
367.15 K, 101.33 kPa | 1350
368.15 K, 101.33 kPa | 1349.2
369.15 K, 101.33 kPa | 1348.3
370.15 K, 101.33 kPa | 1347.5
371.15 K, 101.33 kPa | 1346.7
372.15 K, 101.33 kPa | 1345.8
373.15 K, 100 kPa | 1346.3
373.15 K, 101.33 kPa | 1345
373.15 K, 1000 kPa | 1346.5
373.15 K, 10000 kPa | 1354.8
373.15 K, 20000 kPa | 1363.4
373.15 K, 40000 kPa | 1379.2
373.15 K, 60000 kPa | 1393.5
373.15 K, 80000 kPa | 1406.6
373.15 K, 100000 kPa | 1418.7
373.15 K, 120000 kPa | 1429.9
398.15 K, 100 kPa | 1324.8
398.15 K, 1000 kPa | 1324.6
398.15 K, 10000 kPa | 1333.5
398.15 K, 20000 kPa | 1342.9
398.15 K, 40000 kPa | 1359.8
398.15 K, 60000 kPa | 1374.9
398.15 K, 80000 kPa | 1388.7
398.15 K, 100000 kPa | 1401.4
398.15 K, 120000 kPa | 1413.4
